From US5716971A, “Pyridine derivatives, their production and use” (Takeda Chemical Industries, Ltd., priority 1993, dated 1998) come the findings set out here.

Each structure is given as a SMILES string.

The subject of assay [1] is specimen of rat aorta. In words: Vasorelaxation activity in a specimen of rat aorta: contraction caused by TEA and BaCl2. The note with it: TEA (30-45 mM) and BaCl2 (0.3 mM) contraction, read-out: constriction inhibitory ratio. Here is the method:
Vasorelaxation activity in a specimen of rat aorta Effects on contraction caused by tetraethylammonium chloride (TEA) and barium chloride (BaCl2)
(§1) Male Wister rats (10 to 13 week old were employed for the experiment. After dehematization, the aorta was excised and a ring specimen (5 mm length) was prepared. The specimen was suspended in a bath filled with oxygenated (95% O2 -5%CO2) Krebs solution (36° C.). The ring specimen was fixed at one end and the other end was connected to a transducer (Nippon Koden) for recording tension to determine the tension. After a stabilization period of one hour, TEA (30-45 mM) and BaCl2 (0.3 mM) were added to the bath to cause vasoconstriction. After the constriction had reached a steady state (after about 15 minutes), a test compound was added to the bath and its relaxation activity was measured.

Assay [2] has as its system specimen of rat aorta. In words: Vasorelaxation activity in a specimen of rat aorta: contraction caused by KCl. As to conditions: read-out: constriction inhibitory ratio. As for the experimental part: as §1
Vasorelaxation activity in a specimen of rat aorta Effects on contraction caused by potassium chloride (KCl)
The same experiment was conducted as in Experiment 1, excepting the use of KCl ([…]) instead of TEA and BaCl2

The subject of a further assay is anesthetized dogs. In words: Action of increasing coronary blood flow in anesthetized dogs (administration into coronary artery). In kind it is in vivo, dog. The note with it: injected into coronary artery, anesthetized Beagle dogs. Here is the method: Action of increasing coronary blood flow in anesthetized dogs (Administration into coronary artery) Method: Beagle dogs (10 to 12 kg body weight) were anesthetized with pentobarbital and subjected to thoractomy under artificial respiration. A by-pass fitted with an electromagnetic flowmeter (Nippon Koden) was prepared between the left coronary artery and left carotid artery,and the volume of coronary blood flow was measured. […]
Maximal change rate against the value measured before the administration (% of basal flow) and the duration period [shown in terms of the time (T1/2) in which the activity is reduced to half] are shown in Table 67. As a result, it is apparent that the compounds of this invention show action of increasing coronary blood flow.

As for `Cc1cc(O)c(/C(=N/OC(C)(C)C)c2ncccc2O)cc1Br` [Compound 61, (Z)-2-(5-bromo-2-hydroxy-4-methylbenzoyl)-3-hydroxypyridine O-t-butyloxime], in the assay on specimen of rat aorta [1], the inhibition at 1 µM turned out to be 54% and the inhibition at 3 µM was found to be 100%. Further, in the assay with specimen of rat aorta [2], the inhibition at 1 µM worked out at 4% and the inhibition at 3 µM is 7%. Also, in the assay on anesthetized dogs (30 ug/day), the “duration (T1/2): time in which the activity is reduced to half” value is given as 2.0 min.
Regarding `CC(C)(C)O/N=C(/c1cc(F)c(F)cc1O)c1cccc[n+]1[O-]` [Compound 100, (Z)-2-(4,5-difluoro-2-hydroxybenzoyl)pyridine N-oxide O-t-butyloxime], in the assay on specimen of rat aorta [1], the inhibition at 1 µM was determined as 52% and the inhibition at 3 µM came to 100%. For the same molecule, in the assay with specimen of rat aorta [2], the inhibition at 1 µM stood at 4% and the inhibition at 3 µM was 11%. Further, in the assay with anesthetized dogs (30 ug/day), the “duration (T1/2): time in which the activity is reduced to half” value worked out at 3.3 min.
On to `Cc1ccc(O)c(/C(=N/OC(C)(C)C)c2ncccc2O)c1` [Compound 23, (Z)-2-(2-hydroxy-5-methylbenzoyl)-3-hydroxypyridine O-t-butyloxime], for which the “duration (T1/2): time in which the activity is reduced to half” value in the assay on anesthetized dogs (30 ug/day) was 1.2 min.
As for `CC(C)(C)O/N=C(/c1cc([N+](=O)[O-])ccc1O)c1ncccc1O` [Compound 27, (Z)-2-(2-hydroxy-5-nitrobenzoyl)-3-hydroxypyridine O-t-butyloxime], the “duration (T1/2): time in which the activity is reduced to half” value in the assay on anesthetized dogs (30 ug/day) was found to be 2.1 min.
`CC(C)(C)O/N=C(/c1cc(C#N)c(Cl)cc1O)c1ncccc1O` [Compound 130, (Z)-2-(4-chloro-5-cyano-2-hydroxybenzoyl)-3-hydroxy pyridine O-t-butyloxime]: in the assay on specimen of rat aorta [1], the inhibition at 1 µM stood at 100%. In addition, the “duration (T1/2): time in which the activity is reduced to half” value in the assay with anesthetized dogs (30 ug/day) is 4.4 min.
As for `CC(C)(C)O/N=C(/c1cc(Br)c(F)cc1O)c1c(OC(=O)C(C)(C)C)ccc[n+]1[O-]` [Compound 171, (Z)-2-(5-bromo-4-fluoro-2-hydroxybenzoyl)-3-pivaloyloxypyridine N-oxide O-t-butyloxime], in the assay with anesthetized dogs (10 μg/dog administration), the “duration (T1/2): time in which the activity is reduced to half” value was 23.4 min.
For `CC(C)(C)O/N=C(/c1cc(Cl)c(C#N)cc1O)c1ncccc1O` [Compound 174, (Z)-2-(5-chloro-4-cyano-2-hydroxybenzoyl)-3-hydroxy pyridine O-t-butyloxime], the inhibition at 1 µM with specimen of rat aorta [1] was found to be 100%. Besides, the “duration (T1/2): time in which the activity is reduced to half” value with anesthetized dogs (10 μg/dog administration) turned out to be 4.4 min.
`CC(C)(C)O/N=C(/c1cc(Br)c(C#N)cc1O)c1ncccc1O` [Compound 128, (Z)-2-(5-bromo-4-cyano-2-hydroxybenzoyl)-3-hydroxy pyridine O-t-butyloxime]: the inhibition at 1 µM in the assay on specimen of rat aorta [1] was found to be 100%. Moreover, the “duration (T1/2): time in which the activity is reduced to half” value in the assay with anesthetized dogs (30 ug/day) was 6.2 min.
For the molecule `CC(C)(C)O/N=C(/c1cc(F)c(Cl)cc1O)c1cccc[n+]1[O-]` [Compound 103, (Z)-2-(4-chloro-5-fluoro-2-hydroxybenzoyl)pyridine N-oxide O-t-butyloxime], the inhibition at 3 µM in the assay on specimen of rat aorta [1] was found to be 29%. The inhibition at 10 µM in the assay on specimen of rat aorta [1] (10 μM) came to 47%. Moreover, the “duration (T1/2): time in which the activity is reduced to half” value in the assay on anesthetized dogs (30 ug/day) was 3.0 min.
Regarding `CC(C)(C)O/N=C(/c1cc(F)c(C#N)cc1O)c1ncccc1O` [Compound 176, (Z)-2-(4-cyano-5-fluoro-2-hydroxybenzoyl)-3-hydroxyoyridine O-t-butyloxime], the inhibition at 1 µM in the assay with specimen of rat aorta [1] worked out at 100%. The “duration (T1/2): time in which the activity is reduced to half” value in the assay on anesthetized dogs (10 μg/dog administration) turned out to be 1.8 min.
Consider `CC(C)(C)O/N=C(/c1cc(C#N)c(Cl)cc1O)c1c(O)ccc[n+]1[O-]` [Compound 132, (Z)-2-(4-chloro-5-cyano-2-hydroxybenzoyl)-3-hydroxy pyridine N-oxide O-t-butyloxime], for which, in the assay with specimen of rat aorta [1], the inhibition at 1 µM worked out at 100%. In addition, the “duration (T1/2): time in which the activity is reduced to half” value in the assay on anesthetized dogs (30 ug/day) is 71.8 min.
